Experimental data reported in the METLIN SMRT retention time set (Domingo-Almenara et al. 2019).

test: gradient 5% acetonitrile 3 min, to 50% in 2 min, to 85% in 15 min, held 3 min, 100 µL/min; settings: column: Zorbax Extend-C18 2.1 x 50 mm; eluents: water / acetonitrile, 0.1% formic acid
How it was run: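 In both positive and negative ionization mode, a quadrupole time-of-flight mass spectrometer coupled to HPLC analyzed pure standards run in mixtures of ~100 molecules. The Zorbax Extend-C18 column (2.1 × 50 mm, 1.8 μm) was operated at 100 μL/min with water and acetonitrile, each containing 0.1% formic acid. The dead volume was 40 μL and the dwell volume 900 μL. Retention time came from adduct peaks that were computationally picked and individually inspected by hand.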

SMILES	RP-LC retention time [s]
CC1CCCCN1CCCNC(=O)C1=Cc2cc(Br)ccc2OC1 (centres undefined)	696
COc1ccc(OC)c(C(O)Cn2ccn3nc(-c4ccc(C(C)C)cc4)cc3c2=O)c1 (centres undefined)	1090
CC(C)CCC(=O)N1CCN(c2nc3c(s2)CN(C)CC3)CC1	597
Cc1oc(C2CCN(C(=O)Nc3cc(F)cc(F)c3)CC2)nc1C(=O)N1CCCC1	917
O=C(NCc1cccs1)NCC1(CO)CC1	592
COc1ccc(-c2cc(N3CCN(C(=O)NCC(C)C)CC3)ncn2)cc1OC	623
CCN1CCn2cc(S(=O)(=O)Nc3ccc(F)cc3Cl)cc2C1=O	736
Cc1nn(-c2ccc(Cl)cc2)c(C)c1S(=O)(=O)N1CCC(C(=O)NC2CC2)CC1	835
O=C(NCCc1csc(C2CCN(C(=O)C3CCCO3)CC2)n1)C1CC1 (centres undefined)	603
CCCNC(=O)C1CCCN(c2ccc(SCC(=O)Nc3ccc(S(C)(=O)=O)cc3)nn2)C1 (centres undefined)	614
CCN1CCn2cc(S(=O)(=O)Nc3ccc(OC)c(Cl)c3)cc2C1=O	730
O=C([C@@H]1C[C@H](F)CN1C(=O)c1ccc(F)cc1)N1CCOCC1	608
O=C(Cn1c(=O)c2cccn2c2ccc(F)cc21)N1CCc2ccccc2C1	911
Cc1nc(-c2ccncc2)nc2c1CCC(=O)N2C1CCCCC1	851
O=C(Cn1nc2c(N3CCCCCC3)nccn2c1=O)NC1CCCCC1	681
O=C(CN1C(=O)COc2ccc(C(=O)N3CCCC3)cc21)N1CCN(c2ccccc2)CC1	718
CCCN(CCc1cccs1)C1CCc2c(O)cccc2C1 (centres undefined)	757
CCCc1cc(N2CCN(C(=O)c3ccsc3)CC2)nc2nnc(CC)n12	624
CNS(=O)(=O)c1c[nH]c(=O)[nH]c1=O	624
Cc1noc(C)c1S(=O)(=O)N1CCCC(c2nnnn2-c2ccccc2)C1 (centres undefined)	903
O=C(Nc1ccc(F)cc1)C1CCCN(c2ccc3cc(S(=O)(=O)N4CCCCC4)ccc3n2)C1 (centres undefined)	883
COc1cc(NC(=O)CC2=C3CCCCC3NC2=O)cc(OC)c1 (centres undefined)	706

SMILES	RP-LC retention time [s]
CN1CCN(C(=O)C2CCCN(c3ncccc3-c3noc(C4CCC4)n3)C2)CC1 (centres undefined)	623
NC(=O)[C@H](Cc1ccccc1)NC(=O)[C@H](Cc1ccccc1)NC(=O)[C@@H]1CCCN1C(=O)[C@@H](N)Cc1ccc(O)cc1	678
O=C(Cc1cccs1)NC1CCN(c2cc(-c3ccccc3)[nH]n2)C1 (centres undefined)	673
Cc1cc(C)cc(C(=O)N2CCc3nc[nH]c3C2)c1	584
CCc1ccc(C2=C(C)C(N3CCCN(C(=O)NC(C)C)CC3)=NS2(=O)=O)cc1	849
O=C(Cn1nc2c(SCc3ccc(Cl)cc3)nccn2c1=O)N1CCN(c2ccccc2)CC1	1040
O=C(Nc1cnc(N2CCCCCC2)nc1)C1CCCC1	844
CN1c2cc(F)ccc2C(=O)NC12CCN(C(=O)c1ccc(F)c(F)c1)CC2	776
Cn1ncc2c(Nc3cccc(Cl)c3)nc(N3CCN(C4CCCCC4)CC3)nc21	751
CC1CCN(S(=O)(=O)c2cc(-c3nnc(C4CC4)o3)co2)CC1	945
COc1cc2c(cc1CNC(=O)Cn1cnc3cc4c(cc31)OCCO4)OCCCO2	629
CCC(=O)N1CCc2c(C(=O)N3CCN(c4ccccc4F)CC3)cccc21	872
Cc1[nH]c(C(=O)N2CCC(CC(=O)NCc3cccc(F)c3)CC2)c(C)c1C(=O)OC(C)C	839
Cc1cc(C)cc(NC(=O)C2CCN(S(=O)(=O)c3ccc4[nH]c(=O)sc4c3)CC2)c1	851
Fc1ccccc1N1CCN(c2ncc3c(n2)CCN(Cc2cccc(F)c2F)C3)CC1	826
CCOc1ccccc1C1CC(=O)Nc2c(S(=O)(=O)c3ccccc3)csc21 (centres undefined)	1010
CCc1nnc(C2CN(C)CC23CCN(S(=O)(=O)c2ccc(C)c(Cl)c2)CC3)o1 (centres undefined)	675
COc1ccc(/C=C/C(=O)c2ccc(OC)cc2OC)cc1	1100
O=C(CCC1CCCC1)Nc1cccc(-c2nnc3n2CCCC3)c1	762
N#Cc1ccc(S(=O)(=O)N2CC(c3nc(CCOCC4CCOCC4)no3)C2)cc1	813
Cc1cc(C)cc(N2CC(C)Cn3c2nc2c3c(=O)n(CC(=O)O)c(=O)n2C)c1 (centres undefined)	826

Other lines, results leading:

RP-LC retention time [s]	SMILES
780	CCn1cc(C(=O)NCCc2cccs2)c(=O)c2cc(OC)ccc21
769	O=C(NCc1csc(-c2cccs2)n1)C1CCN(C(=O)c2c(F)cccc2F)CC1
775	CCNC(=O)CCc1nc2ccccc2n(CC(=O)Nc2cccc(C(=O)OCC)c2)c1=O
730	COc1ccc(OC)c(CNC(=O)c2cn3cccc(C)c3n2)c1
661	O=C(NCc1cc(F)cc(F)c1)c1ccnc(N2CCNC(c3ccccc3)C2)c1 (centres undefined)
1060	CC(C)(C)c1noc(-c2ccc(-n3cnc(C(=O)NCc4ccccc4)c3)nc2)n1
932	Cn1nccc1C(=O)NCc1ccc(-c2nc(-c3ccccc3)no2)s1
700	CCn1cnc2cc(-c3noc(C4CC(=O)N(c5ccc(C)cc5)C4)n3)ccc21 (centres undefined)
762	OC(CNCc1ccc(-c2cc(Cl)ccc2Cl)o1)c1ccccc1 (centres undefined)
1130	O=C(Nc1ccc(Cl)cc1)N1CCc2nc(-c3ccc(Cl)cc3)ncc2C1
904	CCc1noc(NC(C)=O)c1-c1ccc(C)c(S(=O)(=O)Nc2c(C)cc(C)cc2C)c1
928	Cc1cc(C)n(-c2ccnc(NCc3ccc(Cl)cc3)n2)n1
584	COCc1cc(=O)n(CC(=O)Nc2ccc(C)cc2C)c(N)n1
776	CCc1ccccc1NC(=O)CSc1nnc2ccc(C(=O)Nc3cccc(F)c3)cn12
626	CN(C)CCNC(=O)c1nc2ccccn2c1-c1ccc(Cl)cc1
902	O=c1c(=O)n(-c2ccccc2)ccn1Cc1nc(-c2cccc(C(F)(F)F)c2)no1
1140	COc1ccc(-c2noc(C3(NC(=O)c4ccc(OC)c(F)c4)CCCCC3)n2)cc1
929	CCc1csc(-c2ccc(N3CCN(C(=O)c4ccc(C#N)cc4F)CC3)nc2)n1
1170	Cc1occc1C(=O)Nc1nc(-c2ccc3ccccc3c2)cs1
687	COc1cccc(NC(=O)Cn2c(C(C)C)nc3c(c2=O)CN(Cc2ccccc2)CC3)c1
689	CCn1ccc(C(=O)N2CCN(c3cc(-c4ccccc4)[nH]n3)CC2)n1
594	O=C(CCc1csc2nc(C3CC3)cn12)Nc1nc2ccccc2s1
942	O=C(O)Cc1sc(Nc2ccccc2Cl)nc1-c1ccccc1

RP-LC retention time [s]	SMILES
720	Cc1ccc(C(=O)NCCc2cn(C)c3ncccc23)cc1F
1000	CCOC(=O)c1nc(N(Cc2ccccc2)C(C)C)c2ccccc2n1
841	O=C(NCC1CCCO1)c1cc(-c2cccs2)nc2ccccc12 (centres undefined)
965	COc1ccc(-n2c(=O)n(C)c(=O)c3cc(C(=O)Nc4ccc(C)c(F)c4)cnc32)cc1
808	CCc1nn2c(CNC(=O)c3ccoc3)c(-c3ccccc3)nc2s1
729	Cc1nc(C)c(C(=O)N2CC(n3cc(COc4ccc(F)cc4)nn3)C2)s1
838	NNC(=O)CSc1nc2scc(-c3ccccc3)c2c(=O)n1-c1ccccc1
743	CCNC(=O)c1nccnc1NC(=O)c1ccccc1
681	Fc1ccc(Cl)cc1-c1nnc(-c2ccc(-n3ccnc3)nc2)o1
960	Cn1c(=O)c(N2CCCC(C(=O)NCCc3c[nH]c4ccc(Cl)cc34)C2)nc2ccccc21 (centres undefined)
736	CCc1onc(C)c1C1CCCN1C(=O)c1ccc(F)cc1 (centres undefined)
705	Cc1cccc(C)c1Nc1c(-c2ccccc2O)nc2ncccn12
1130	Cc1c(C(=O)NC2CCCC2)cnn1-c1cc(-c2nc(C(C)(C)C)no2)ccn1
895	Cc1nc(-c2csc(S(=O)(=O)N3CCC(C(=O)NCc4ccccc4Cl)CC3)c2)no1
1250	CCc1ccc(-n2ncc3c(=O)n(Cc4nc(-c5ccc(F)c(Cl)c5)no4)cnc32)cc1
692	O=C(Nc1cccn2c(C3CCC3)nnc12)c1cnccn1
746	COCCn1ccc2nc(C)c(C(=O)Nc3cccc(SC)c3)cc2c1=O
601	COc1ccc(NC(=O)c2cn3c(n2)CCCC3)cc1F
849	Cc1cc(N2CCC(NC(=O)Nc3ccc(F)cc3)C2=O)ccc1F (centres undefined)
987	CCn1cc(-c2nc(C(=O)Nc3ccc(C)c(F)c3)cs2)c2cccnc21
734	CCN1CCN(c2ccc(-c3nc(-c4cccc(C)c4)no3)cn2)CC1
634	CNC(=O)c1csc(NC(=O)Cc2ccc(OC)cc2)n1
850	O=C(Cn1cccc(-c2nc(-c3ccc(F)cc3)no2)c1=O)Nc1ccc2c(c1)OCO2
